Reference: patent US5672715A, “Herbicidal substituted 3-aryl-pyrazoles” (Monsanto Company, priority 1995, dated 1997)
Where two headings read alike, the source gives them in different places.

Key:
Assay type in all cases: in vivo
Soybean = assay: post-emergence herbicide test; conditions: Glycine max, post-emergence, read-out: % plant inhibition
How it was run: (§1)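 Soil pans seeded, covered and leveled; grown in greenhouse 2–3 weeks. Sprayed individually (atomizer, 10 psig, 200 gallons/acre). Percent inhibition recorded.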

Velvetleaf = assay: post-emergence herbicide test; conditions: Abutilon theophrasti, post-emergence, read-out: % plant inhibition
How it was run: as §1

Common Chickweed = assay: post-emergence herbicide test; conditions: post-emergence, read-out: % plant inhibition
How it was run: as §1

Blackgrass = assay: post-emergence herbicide test; conditions: Alopecurus myosuroides, post-emergence, read-out: % plant inhibition; for inhibition at 40.0143 g/ha: 0.0357 lb/A; for inhibition at 200.072 g/ha: 0.1785 lb/A; for inhibition at 1000.92 g/ha: 0.893 lb/A; for inhibition at 5043.82 g/ha: 4.5 lb/A
How it was run: as §1

Corn = assay: post-emergence herbicide test; conditions: Zea mays, post-emergence, read-out: % plant inhibition
How it was run: as §1

Bedstraw Catchweed = assay: post-emergence herbicide test; conditions: Galium aparine, post-emergence, read-out: % plant inhibition
How it was run: as §1

Yellow Nutsedge = assay: post-emergence herbicide test; conditions: Cyperus, read-out: % plant inhibition
How it was run: as §1

Cocklebur = assay: post-emergence herbicide test; conditions: Xanthium strumarium, post-emergence, read-out: % plant inhibition
How it was run: as §1

Morning Glory [1] = assay: post-emergence herbicide test; conditions: Ipomoea, post-emergence, read-out: % plant inhibition
How it was run: as §1

Barnyardgrass [2] = assay: post-emergence herbicide test; conditions: Echinochloa crus-galli, post-emergence, read-out: % plant inhibition
How it was run: as §1

Wheat = assay: post-emergence herbicide test; conditions: Triticum aestivum, post-emergence, read-out: % plant inhibition
How it was run: as §1

Yellow Foxtail = assay: post-emergence herbicide test; conditions: Setaria, read-out: % plant inhibition
How it was run: as §1

Rice = assay: pre-emergence herbicide test; conditions: Oryza sativa, read-out: % plant inhibition
How it was run: (§2)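 Read-out is percent inhibition at approximately 14 days after seeding and treating. Seeds sat on compacted topsoil beneath a cover layer containing compound in acetone or water, with greenhouse bottom-watering.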

Morning Glory [3] = assay: pre-emergence herbicide test; conditions: Ipomoea, pre-emergence, read-out: % plant inhibition
How it was run: as §2

Barnyardgrass [4] = assay: pre-emergence herbicide test; conditions: Echinochloa crus-galli, pre-emergence, read-out: % plant inhibition
How it was run: as §2

For `Cc1c(-c2cc(O)c(Cl)cc2F)nn(C)c1C(F)(F)F` [Compound 40], the inhibition at 40.0143 g/ha (Soybean; 0.0357 lb/A) was 25%, the inhibition at 200.072 g/ha (Soybean; 0.1785 lb/A) was 30% and the inhibition at 1000.92 g/ha (Soybean; 0.893 lb/A) was 70%. It also gave an inhibition at 5043.82 g/ha (Soybean; 4.5 lb/A) of 80%, an inhibition at 40.0143 g/ha (Velvetleaf; 0.0357 lb/A) of 55% and an inhibition at 200.072 g/ha (Velvetleaf; 0.1785 lb/A) of 75%. It also gave an inhibition at 1000.92 g/ha (Velvetleaf; 0.893 lb/A) of 100%, an inhibition at 5043.82 g/ha (Velvetleaf; 4.5 lb/A) of 100% and an inhibition at 40.0143 g/ha (Common Chickweed; 0.0357 lb/A) of 15%. The inhibition at 200.072 g/ha (Common Chickweed; 0.1785 lb/A) was 50%, the inhibition at 1000.92 g/ha (Common Chickweed; 0.893 lb/A) was 98% and the inhibition at 5043.82 g/ha (Common Chickweed; 4.5 lb/A) was 98%. The inhibition at 40.0143 g/ha (Blackgrass; Table 4a) was 0%, the inhibition at 40.0143 g/ha (Blackgrass; Table 5a) was 0% and the inhibition at 200.072 g/ha (Blackgrass; Table 4a) was 0%. It also gave an inhibition at 200.072 g/ha (Blackgrass; Table 5a) of 35%, an inhibition at 1000.92 g/ha (Blackgrass; Table 4a) of 50% and an inhibition at 1000.92 g/ha (Blackgrass; Table 5a) of 65%. It also gave an inhibition at 5043.82 g/ha (Blackgrass; Table 4a) of 30%, an inhibition at 5043.82 g/ha (Blackgrass; Table 5a) of 100% and an inhibition at 40.0143 g/ha (Corn; 0.0357 lb/A) of 25%. It also gave an inhibition at 200.072 g/ha (Corn; 0.1785 lb/A) of 45%, an inhibition at 1000.92 g/ha (Corn; 0.893 lb/A) of 85% and an inhibition at 5043.82 g/ha (Corn; 4.5 lb/A) of 50%. For the same molecule, the inhibition at 40.0143 g/ha (Bedstraw Catchweed; 0.0357 lb/A) was 20%, the inhibition at 200.072 g/ha (Bedstraw Catchweed; 0.1785 lb/A) was 60% and the inhibition at 1000.92 g/ha (Bedstraw Catchweed; 0.893 lb/A) was 98%. The inhibition at 5043.82 g/ha (Bedstraw Catchweed; 4.5 lb/A) was 100%, the inhibition at 40.0143 g/ha (Yellow Nutsedge; 0.0357 lb/A) was 70% and the inhibition at 200.072 g/ha (Yellow Nutsedge; 0.1785 lb/A) was 55%. It also gave an inhibition at 1000.92 g/ha (Yellow Nutsedge; 0.893 lb/A) of 0%, an inhibition at 5043.82 g/ha (Yellow Nutsedge; 4.5 lb/A) of 0% and an inhibition at 40.0143 g/ha (Cocklebur; 0.0357 lb/A) of 80%. It also gave an inhibition at 200.072 g/ha (Cocklebur; 0.1785 lb/A) of 65%, an inhibition at 1000.92 g/ha (Cocklebur; 0.893 lb/A) of 70% and an inhibition at 5043.82 g/ha (Cocklebur; 4.5 lb/A) of 100%. The inhibition at 40.0143 g/ha (Morning Glory [1]; 0.0357 lb/A) was 50%, the inhibition at 200.072 g/ha (Morning Glory [1]; 0.1785 lb/A) was 70% and the inhibition at 1000.92 g/ha (Morning Glory [1]; 0.893 lb/A) was 80%. For the same molecule, the inhibition at 5043.82 g/ha (Morning Glory [1]; 4.5 lb/A) was 100%, the inhibition at 40.0143 g/ha (Barnyardgrass [2]; 0.0357 lb/A) was 0% and the inhibition at 200.072 g/ha (Barnyardgrass [2]; 0.1785 lb/A) was 0%. The inhibition at 1000.92 g/ha (Barnyardgrass [2]; 0.893 lb/A) was 65%, the inhibition at 5043.82 g/ha (Barnyardgrass [2]; 4.5 lb/A) was 85% and the inhibition at 40.0143 g/ha (Wheat; 0.0357 lb/A) was 0%. It also gave an inhibition at 200.072 g/ha (Wheat; 0.1785 lb/A) of 15%, an inhibition at 1000.92 g/ha (Wheat; 0.893 lb/A) of 20% and an inhibition at 5043.82 g/ha (Wheat; 4.5 lb/A) of 25%. The inhibition at 40.0143 g/ha (Yellow Foxtail; 0.0357 lb/A) was 0%, the inhibition at 200.072 g/ha (Yellow Foxtail; 0.1785 lb/A) was 0% and the inhibition at 1000.92 g/ha (Yellow Foxtail; 0.893 lb/A) was 10%. It also gave an inhibition at 5043.82 g/ha (Yellow Foxtail; 4.5 lb/A) of 100%, an inhibition at 40.0143 g/ha (Rice; 0.0357 lb/A) of 0% and an inhibition at 200.072 g/ha (Rice; 0.1785 lb/A) of 0%. For the same molecule, the inhibition at 1000.92 g/ha (Rice; 0.893 lb/A) was 0%, the inhibition at 5043.82 g/ha (Rice; 4.5 lb/A) was 65% and the inhibition at 40.0143 g/ha (Morning Glory [3]; 0.0357 lb/A) was 0%. For the same molecule, the inhibition at 200.072 g/ha (Morning Glory [3]; 0.1785 lb/A) was 0%, the inhibition at 1000.92 g/ha (Morning Glory [3]; 0.893 lb/A) was 50% and the inhibition at 5043.82 g/ha (Morning Glory [3]; 4.5 lb/A) was 100%. It also gave an inhibition at 40.0143 g/ha (Barnyardgrass [4]; 0.0357 lb/A) of 0%, an inhibition at 200.072 g/ha (Barnyardgrass [4]; 0.1785 lb/A) of 0% and an inhibition at 1000.92 g/ha (Barnyardgrass [4]; 0.893 lb/A) of 35%. For the same molecule, the inhibition at 5043.82 g/ha (Barnyardgrass [4]; 4.5 lb/A) was 100%.
